Measured values reported in ChEMBL document CHEMBL3885881, “DrugMatrix”.

Organism: Rattus norvegicus
Assay: DrugMatrix - Regimen: Daily Repeat
Assay type: toxicity, organism-based, Sprague-Dawley
Parameters: regimen Daily Repeat, gender Male, age 6-8 weeks
Conditions: in vivo, po, route oral GAVAGE, vehicle .5 % CMC; for ABSOLUTE BASOPHIL / ABSOLUTE EOSINOPHIL / ABSOLUTE LYMPHOCYTE / ABSOLUTE MONOCYTE / ABSOLUTE SEGMENTED NEUTROPHIL / BASOPHIL / EOSINOPHIL / ERYTHROCYTE COUNT / HEMATOCRIT / HEMOGLOBIN / LEUKOCYTE COUNT / LYMPHOCYTE / MEAN CORPUSCULAR HEMOGLOBIN / MEAN CORPUSCULAR HEMOGLOBIN CONCENTRATION / MEAN CORPUSCULAR VOLUME / MONOCYTE / NEUTROPHIL / NUCLEATED RED BLOOD CELLS / PLATELET COUNT: tissue Blood; for ALANINE AMINOTRANSFERASE / ALBUMIN / ALKALINE PHOSPHATASE / ASPARTATE AMINOTRANSFERASE / BLOOD UREA NITROGEN / CARBON DIOXIDE / CHLORIDE / CHOLESTEROL / CREATINE PHOSPHOKINASE / CREATININE / GLUCOSE / LACTATE DEHYDROGENASE / LIPASE / PHOSPHORUS / POTASSIUM / SODIUM / TOTAL BILIRUBIN / TOTAL PROTEIN / URIC ACID: tissue Plasma
[1] = 100 mg/kg, 120 h, dose level Low, time 5 day
[2] = 2500 mg/kg, 72 h, dose level High, time 3 day
[3] = 2500 mg/kg, 120 h, dose level High, time 5 day

SMILES: NC(=O)CN1CCCC1=O
- ABSOLUTE BASOPHIL [1]: 0 CELLS/uL
- ABSOLUTE EOSINOPHIL [1]: 42 CELLS/uL
- ABSOLUTE LYMPHOCYTE [1]: 9826.67 CELLS/uL
- ABSOLUTE MONOCYTE [1]: 141.33 CELLS/uL
- ABSOLUTE SEGMENTED NEUTROPHIL [1]: 823.33 CELLS/uL
- BASOPHIL [1]: 0%
- EOSINOPHIL [1]: 0.33%
- ERYTHROCYTE COUNT [1]: 5.31 x10E6/uL
- HEMATOCRIT [1]: 34.1%
- HEMOGLOBIN [1]: 13.87 G/DL
- LEUKOCYTE COUNT [1]: 10.83 x10E3/uL
- LYMPHOCYTE [1]: 90.67%
- MEAN CORPUSCULAR HEMOGLOBIN [1]: 26.1 pg
- MEAN CORPUSCULAR HEMOGLOBIN CONCENTRATION [1]: 40.7 G/DL
- MEAN CORPUSCULAR VOLUME [1]: 64.2 fL
- MONOCYTE [1]: 1.33%
- NEUTROPHIL [1]: 7.67%
- NUCLEATED RED BLOOD CELLS [1]: 0 /100WBC
- PLATELET COUNT [1]: 1439.67 x10E3/uL
- ALANINE AMINOTRANSFERASE [1]: 57.33 u/L
- ALBUMIN [1]: 4.37 G/DL
- ALKALINE PHOSPHATASE [1]: 345.67 u/L
- ASPARTATE AMINOTRANSFERASE [1]: 81.33 u/L
- BLOOD UREA NITROGEN [1]: 14 mg/dL
- CARBON DIOXIDE [1]: 31 mmol/L
- CHLORIDE [1]: 101.33 MEQ/L
- CHOLESTEROL [1]: 79 mg/dL
- CREATINE PHOSPHOKINASE [1]: 221.33 u/L
- CREATININE [1]: 0.2 mg/dL
- GLUCOSE [1]: 137.33 mg/dL
- LACTATE DEHYDROGENASE [1]: 190.33 u/L
- LIPASE [1]: 10 u/L
- PHOSPHORUS [1]: 12 mg/dL
- POTASSIUM [1]: 6.54 MEQ/L
- SODIUM [1]: 144.03 MEQ/L
- TOTAL BILIRUBIN [1]: 0.23 mg/dL
- TOTAL PROTEIN [1]: 6.17 G/DL
- URIC ACID [1]: 1.2 mg/dL
- ABSOLUTE BASOPHIL [2]: 0 CELLS/uL
- ABSOLUTE EOSINOPHIL [2]: 0 CELLS/uL
- ABSOLUTE LYMPHOCYTE [2]: 13503 CELLS/uL
- ABSOLUTE MONOCYTE [2]: 41.67 CELLS/uL
- ABSOLUTE SEGMENTED NEUTROPHIL [2]: 1822 CELLS/uL
- BASOPHIL [2]: 0%
- EOSINOPHIL [2]: 0%
- ERYTHROCYTE COUNT [2]: 5.25 x10E6/uL
- HEMATOCRIT [2]: 34.27%
- HEMOGLOBIN [2]: 13.27 G/DL
- LEUKOCYTE COUNT [2]: 15.37 x10E3/uL
- LYMPHOCYTE [2]: 88.33%
- MEAN CORPUSCULAR HEMOGLOBIN [2]: 25.33 pg
- MEAN CORPUSCULAR HEMOGLOBIN CONCENTRATION [2]: 38.77 G/DL
- MEAN CORPUSCULAR VOLUME [2]: 65.3 fL
- MONOCYTE [2]: 0.33%
- NEUTROPHIL [2]: 11.33%
- NUCLEATED RED BLOOD CELLS [2]: 0 /100WBC
- PLATELET COUNT [2]: 1334.33 x10E3/uL
- ALANINE AMINOTRANSFERASE [2]: 49 u/L
- ALBUMIN [2]: 3.97 G/DL
- ALKALINE PHOSPHATASE [2]: 347.33 u/L
- ASPARTATE AMINOTRANSFERASE [2]: 74 u/L
- BLOOD UREA NITROGEN [2]: 20.67 mg/dL
- CARBON DIOXIDE [2]: 31 mmol/L
- CHLORIDE [2]: 102.67 MEQ/L
- CHOLESTEROL [2]: 67.67 mg/dL
- CREATINE PHOSPHOKINASE [2]: 351.33 u/L
- CREATININE [2]: 0.18 mg/dL
- GLUCOSE [2]: 147.33 mg/dL
- LACTATE DEHYDROGENASE [2]: 239 u/L
- LIPASE [2]: 9.67 u/L
- PHOSPHORUS [2]: 12.57 mg/dL
- POTASSIUM [2]: 6.21 MEQ/L
- SODIUM [2]: 146 MEQ/L
- TOTAL BILIRUBIN [2]: 0.2 mg/dL
- TOTAL PROTEIN [2]: 5.7 G/DL
- URIC ACID [2]: 1.4 mg/dL
- ABSOLUTE BASOPHIL [3]: 0 CELLS/uL
- ABSOLUTE EOSINOPHIL [3]: 37.33 CELLS/uL
- ABSOLUTE LYMPHOCYTE [3]: 8603 CELLS/uL
- ABSOLUTE MONOCYTE [3]: 37.33 CELLS/uL
- ABSOLUTE SEGMENTED NEUTROPHIL [3]: 1055.67 CELLS/uL
- BASOPHIL [3]: 0%
- EOSINOPHIL [3]: 0.33%
- ERYTHROCYTE COUNT [3]: 5.53 x10E6/uL
- HEMATOCRIT [3]: 34.87%
- HEMOGLOBIN [3]: 14.13 G/DL
- LEUKOCYTE COUNT [3]: 9.73 x10E3/uL
- LYMPHOCYTE [3]: 88.67%
- MEAN CORPUSCULAR HEMOGLOBIN [3]: 25.6 pg
- MEAN CORPUSCULAR HEMOGLOBIN CONCENTRATION [3]: 40.53 G/DL
- MEAN CORPUSCULAR VOLUME [3]: 63.17 fL
- MONOCYTE [3]: 0.33%
- NEUTROPHIL [3]: 10.67%
- NUCLEATED RED BLOOD CELLS [3]: 0 /100WBC
- PLATELET COUNT [3]: 1291.33 x10E3/uL
- ALANINE AMINOTRANSFERASE [3]: 61.33 u/L
- ALBUMIN [3]: 4.27 G/DL
- ALKALINE PHOSPHATASE [3]: 359.33 u/L
- ASPARTATE AMINOTRANSFERASE [3]: 86.33 u/L
- BLOOD UREA NITROGEN [3]: 18.33 mg/dL
- CARBON DIOXIDE [3]: 28.67 mmol/L
- CHLORIDE [3]: 101.67 MEQ/L
- CHOLESTEROL [3]: 64 mg/dL
- CREATINE PHOSPHOKINASE [3]: 310 u/L
- CREATININE [3]: 0.16 mg/dL
- GLUCOSE [3]: 160.33 mg/dL
- LACTATE DEHYDROGENASE [3]: 149.33 u/L
- LIPASE [3]: 7.33 u/L
- PHOSPHORUS [3]: 12.07 mg/dL
- POTASSIUM [3]: 5.7 MEQ/L
- SODIUM [3]: 146.23 MEQ/L
- TOTAL BILIRUBIN [3]: 0.17 mg/dL
- TOTAL PROTEIN [3]: 6.17 G/DL
- URIC ACID [3]: 1.67 mg/dL
